Earlier results, collected in patent US7351421B2, “Drug-eluting stent having collagen drug carrier chemically treated with genipin” (priority 1996, dated 2008).
Entries after “also recorded” stand apart in the source; their conditions may differ.

Tests used:
[1] = glutaraldehyde used to crosslink materials
3T3 fibroblasts = conditions: in vitro
CHO-K1 cells = conditions: in vitro
smooth muscle cell = conditions: in vitro
intimal proliferation = conditions: de-endothelialized rabbits, in vivo
[2] = tested on: intimal proliferative lesion; conditions: in vivo

Molecule: O=CCCCC=O [glutaraldehyde]
- crosslinking concentration giving persistent foreign-body reaction [1]: above 0.05%
- concentration at which cytotoxic (tissue culture): 10-25 ppm
- concentration at which cytotoxic in tissue culture (tissue culture; tissue culture, as low as): ≥ 3 ppm

Molecule: COC(=O)C1=CO[C@@H](O)[C@@H]2C(CO)=CC[C@H]12 [Genipin]
- LD50 i.v. (mice): 382 mg/k
- cytotoxicity compared with glutaraldehyde (3T3 fibroblasts): substantially less cytotoxic; also recorded: significantly less cytotoxic
- clastogenic response (genotoxicity) (CHO-K1 cells): does not cause clastogenic response

Molecule: cyclosporin A
- effect on smooth muscle cell proliferation (smooth muscle cell): did not inhibit
- reduction of intimal proliferation (intimal proliferation): no significant reduction
- effect on intimal proliferative lesion following arterial balloon catheterization [2]: inhibition
